Values of other authors, collected in patent US7282487B2, “Method for treating bacterial infections in horses or pigs with tilmicosin” (priority 2004, dated 2007).

Structure (SMILES): CC[C@H]1OC(=O)C[C@@H](O)[C@H](C)[C@@H](OC2OC(C)C(O)C(N(C)C)C2O)[C@@H](CCN2C[C@@H](C)C[C@H](C)C2)C[C@@H](C)C(=O)/C=C/C(C)=C/[C@@H]1COC1OC(C)C(O)C(OC)C1OC (stereo partly shown) [tilmicosin, Tilmicosin]
- solubility in aqueous solutions: moderately soluble
